{
  "source": "patent US20200022957A1",
  "about": "“KINASE AND UBIQUITIN LIGASE INHIBITORS AND USES THEREOF” (ALDA S.R.L., priority 2015, published 2020)",
  "key": {"ATP7B R778L": {"tested_on": "ATP7B R778L", "test": "ATP7B R778L translocation from ER to Golgi in HeLa cells (fluorescence microscopy)", "type": "cell-based, human", "settings": "JNKi II 5 μM, 48 h, fraction of protein in Golgi by fluorescence microscopy, DMSO control 12", "description": "Inventors next examined the effects of the MLK3 pathway inhibition on the proteostasis of other conformational disease mutants. Inventors transfected CFBE (and HeLa) cells with different conformational mutants (i.e., Sodium-chloride symporter [NCC, [MUT] mutant]; P-glycoprotein, [P-gp, [MUT] and DY490 mutants]; human Ether-a-go-go-Related Gene [hERG, [MUT] mutant]; Wilson's disease associated protein [ATP7B, [MUT] and [MUT] mutants]) and then treated cells with JNKi II and monitored these proteins by assessing changes in their glycosylation patterns (NCC, P-gp, hERG mutants) or in their intracellular movement from the ER to the Golgi complex (ATP7B mutants). […] CFBE or HeLa cells (in case of ATP7B) were transfected with constructs encoding the indicated mutant proteins and treated with JNKi II for 48 h."}, "ATP7BH1069Q": {"tested_on": "ATP7BH1069Q", "test": "Immunofluorescence assay for correction of ATP7B: cells with ATP7BH1069Q signal in the ER, HeLa cells", "type": "cell-based, human", "settings": "24 h, SB202190 5 μM, VX-745 1 μM, SP600125 2 μM, Oxozeaenol 5 μM, 100 μM CuSO4 2 h", "protocol": "(A) HeLa cells were infected with Ad-ATP7BWT-GFP (Chesi et al., 2016) or Ad-ATP7BH1069Q-GFP, incubated overnight with 200 μM BCS, and incubated for an additional 2 h with 100 μM CuSO4. In response to Cu, ATP7BWT traffics from the Golgi to PM and vesicle, while ATP7BH1069Q are retained within the ER under high Cu conditions. Addition of p38 inhibitor SB202190 (5 μM), VX-745(1 μM), JNK inhibitor SP600125 (2 μM) and Oxozeaenol (5 μM) (as indicated in corresponding panels) to the cells 24 h corrects ATP7BH1069Q from the ER to PM and vesicles (arrows) (B) Cells were treated as in panel A. The percentage of the cells (average±SD, n=50 fields) with an ATP7B signal in the ER, were calculated.\nCells were fixed with 4% paraformaldehyde in 0.2 M HEPES for 10 mins, permeabilized, labeled with primary and secondary antibodies, and examined with a ZEISS LSM 700 confocal microscope equipped with a 63×1.4 numerical aperture oil objective. The cells were scored based on the disappearance of ATP7B from the ER."}, "ATP7B H1069Q": {"tested_on": "ATP7B H1069Q", "test": "Morphological assay of ATP7B H1069Q exit from ER to Golgi in HeLa cells (fluorescence microscopy)", "type": "cell-based, human", "settings": "ATP7B H1069Q; JNKi II 5 μM, 48 h; HeLa cells; fraction of protein in Golgi by fluorescence microscopy; DMSO control 32", "protocol": "Cells were transfected with ATP7B-WT-GFP or ATP7B-H1069Q-GFP, incubated overnight with 200 μM BCS and/or drugs. Fixed cells were further labeled for TGN46 to mark and visualize the Golgi area under a confocal microscope. Under low copper conditions ATP7B-WT traffics to the Golgi from the ER, while ATP7B-H1069Q is retained within the ER. If the drug treatments induce the rescue of trafficking from the ER to the Golgi, the ATP7B-H1069Q-GFP fluorescence in the Golgi area increases. This is measured by quantifying (in 10 different microscopy fields in 100 cells) the increased in fluorescence of ATP7BWT-GFP or ATP7BH1069Q-GFP in the Golgi area (marked by TGN46) and normalizing this value to total cell fluorescence\nCFBE or HeLa cells (in case of ATP7B) were transfected with constructs encoding the indicated mutant proteins and treated with JNKi II for 48 h."}, "NCC mutant (R948X)": {"tested_on": "NCC mutant (R948X)", "test": "Proteostasis of NCC mutant in transfected CFBE cells (western blotting)", "type": "cell-based", "protocol": "(§1) C. CFBE cells were treated with 5 μM oxozeaenol for 48 h, or with MLK3 siRNA, or with both, and the correction of the F508del-CFTR folding/trafficking defect was monitored by changes in the levels of band C. There was no additive effect observed with the combination of MLK3 downregulation and oxozeaenol treatment. The quantitated band C levels are expressed as mean±SD (n>3). D. CFBE cells were treated with 5 μM oxozeaenol for 24 h, and the activity of the JNK pathway was measured by western blotting for phospho c-jun levels and F508del-CFTR. […] E. CFBE cells were treated with flunarizine (at concentrations 6.25-50 μM) targeting the CAMKK2 pathway for 48 h and the effect on F508del-CFTR proteostasis measured by western blotting. Treatment with flunarizine increased the levels of band C of F508del-CFTR. […] F. CFBE cells transiently transfected with the P-glycoprotein mutant (P-gp DY490), the NCC mutant (R948X), or the hERG mutant (G601S) were treated with JNKi II for 24 h, and the effect of the drug on their proteostasis monitored by western blotting.\n(§2) The level of correction obtained with these inhibitors is higher than the effects of the corrector compounds from which the pathways were deduced (FIG. 3A), and similar to, or higher than, the effects of VX-809. […]"}, "[1]": {"tested_on": "P-glycoprotein mutant (P-gp DY490)", "test": "Proteostasis of P-glycoprotein mutant in transfected CFBE cells (western blotting)", "type": "cell-based", "protocol": "as §1, §2"}, "hERG mutant (G601S)": {"tested_on": "hERG mutant (G601S)", "test": "Proteostasis of hERG mutant in transfected CFBE cells (western blotting)", "type": "cell-based, human", "protocol": "as §1, §2"}, "F508del-CFTR": {"tested_on": "F508del-CFTR", "test": "F508del-CFTR proteostasis by western blotting (ER band B / Golgi-processed band C) in CFBE cells", "type": "cell-based, human", "settings": "48 h, concentration series", "protocol": "Cells were washed three times in ice-cold Dulbecco's phosphate-buffered saline, and lysed in RIPA buffer (150 mM NaCl, 1% Triton X-100, 0.5% deoxycholic acid, 0.1% SDS, 20 mM Tris-HCl, pH 7.4), supplemented with protease inhibitor cocktail and phosphatase inhibitors. The lysates were clarified by centrifugation at 15000×g for 15 min, and the supernatants were resolved by SDS-PAGE. BCA Protein Assay kit (Pierce) was used to quantitate protein levels before loading. The western blots were decorated with appropriate antibodies and developed using ECL. The blots were then exposed to x-ray films and exposure time was varied to obtain optimal signal. The x-ray films were then scanned and the bands were quantitated using ImageJ gel-analysis tool. The protein concentration and the exposures used for quantitation of the blots were optimized to be in a linear range of detection.\nInventors then turned to experimental validation of the role of the CORE genes in the regulation of F508del-CFTR proteostasis. Experiments were carried out using a characterised biochemical assay that detects both the amount of core-glycosylated CFTR trapped in the ER (band B with Western blotting) and the amount of CFTR fully glycosylated in the Golgi (most of which presumably resides at the PM; band C with Western blotting)."}},
  "data": [
    {"molecule": "O=C1c2ccccc2-c2n[nH]c3cccc1c23", "note": "[JNKi II]", "values": [
      {"measurement": "Correction (% of wild type)", "setting": "ATP7B R778L", "value": "40 % of wild type"},
      {"measurement": "percentage of the cells exhibiting ATP7BH1069Q in the ER", "setting": "ATP7BH1069Q", "value": "reduced"},
      {"measurement": "Correction (% of wild type)", "setting": "ATP7B H1069Q", "value": "80 % of wild type"},
      {"measurement": "proteostasis of NCC mutant (R948X), levels of bands B and C", "setting": "NCC mutant (R948X); JNKi II 24 h", "value": "enhanced degradation"},
      {"measurement": "Correction (% of wild type)", "setting": "NCC mutant (R948X); table row 'NCC G601S', JNKi II 5 μM, 48 h, protein processed by the Golgi, DMSO control 10", "value": "9 % of wild type"},
      {"measurement": "trafficking of P-gp DY490 out of the ER (Golgi-associated band C)", "setting": "[1]; JNKi II 24 h", "value": "enhanced"},
      {"measurement": "Correction (% of wild type)", "setting": "[1]; P-Glycoprotein DY490, JNKi II 5 μM, 48 h, protein processed by the Golgi, DMSO control 24", "value": "44 % of wild type"},
      {"measurement": "proteostasis of hERG mutant (G601S), levels of bands B and C", "setting": "hERG mutant (G601S); JNKi II 24 h", "value": "enhanced degradation"},
      {"measurement": "Correction (% of wild type)", "setting": "hERG mutant (G601S); table row 'hERG R948X', JNKi II 5 μM, 48 h, protein processed by the Golgi, DMSO control 44", "value": "24 % of wild type"},
      {"measurement": "levels of band B and band C of F508del-CFTR", "setting": "F508del-CFTR", "value": "robust increases"}
    ]}
  ]
}
